Reference: article PMC7998926 (Microorganisms, 2021)
“And” between values parts separate entries of the source, which are not always exact repeats. Equal entries are not always repeated. “Also recorded” adds a separate entry of the source. Where two headings read alike, the source gives them in different places.

Legend:
[1] = human, in vivo, po, cited from earlier work
EBOV/Mak [2] = details: cited from earlier work; for IC50: read-out: IC50 (Huh7)
EBOV [3] = test: microbe, parasite or virus in culture; type: cell-based, Ebola virus; details: Zaire ebolavirus, read-out: IC50 (average) (μM)
EBOV [4] = details: mouse, in vivo, cited from earlier work
[5] = mouse, in vivo; cited from earlier work
EBOV [6] = test system: EBOV; parameters: species or system Ebola virus
EBOV/Mak [7] = type: cell-based, Ebola virus
[8] = C57BL/6, mouse, in vivo, po; for Cmax obtained relative to prediction, fold higher: female
MARV = details: mouse, in vivo, ip, 12 mg/kg; cited from earlier work
in vivo [9] = details: female, C57BL/6, mouse, po
[10] = mouse, in vivo
VSV-EBOV-GPΔ-Luc = type: cell-based
EBOV [11] = details: read-out: IC50 (HepG2); cited from earlier work
EBOV/Mak-C05 = details: rhesus monkey, in vivo; cited from earlier work
in vivo [12] = details: mouse, po, 10 mg/kg
EBOV [13] = test system: EBOV; parameters: species or system mice; details: mouse, in vivo
[14] = rat, in vivo; cited from earlier work

SMILES: Cc1cccc(/C=N/Nc2cc(N3CCOCC3)nc(OCCc3ccccn3)n2)c1 [Apilimod]
- Cmax ([1]; 70 mg): 260 nM
- IC50 (EBOV/Mak [2]): 0.17 µM
- IC50 (EBOV [3]): 0.17 µM

SMILES: O=C1CCc2ccc(OCCCCN3CCN(c4cccc(Cl)c4Cl)CC3)cc2N1 [Aripiprazole]
- Cmax ([1]; 30 mg): 1010 nM
- Survival (%) (EBOV [4]; ip, 20 mg/kg): 10 ^1%
- somnolence in treated mice (EBOV [4]; ip, 20 mg/kg): extremely somnolent

SMILES: CC[C@H]1OC(=O)[C@H](C)[C@@H](O[C@H]2C[C@@](C)(OC)[C@@H](O)[C@H](C)O2)[C@H](C)[C@@H](O[C@@H]2O[C@H](C)C[C@H](N(C)C)[C@H]2O)[C@](C)(O)C[C@@H](C)CN(C)[C@H](C)[C@@H](O)[C@]1(C)O [Azithromycin]
- Cmax ([1]; 500 mg): 640 nM
- IC50 (EBOV/Mak [2]): 10.8 µM
- IC50 (EBOV [3]): 10.8 µM
- Survival (%) (EBOV [4]; ip, 100 mg/kg): 10, 30, 60 ^2%

SMILES: CC(C)COCC(CN(Cc1ccccc1)c1ccccc1)N1CCCC1 (stereo not drawn) [Bepridil]
- Cmax ([1]; 400 mg): 2430 nM
- Oral LD50 [5]: 2069 mg/kg
- mi (hill coefficient of drug i applied in combination) (EBOV [6]): 4.043
- possible loss of potency (EBOV/Mak [7]): < 2 fold
- Cmax [8]: ~3000 nM
- Cmax obtained relative to prediction, fold higher [8]: ~ 1.8 fold
- Survival (%) (MARV): 90 ^4%
- mice protected (MARV): 80%
- MRT (in vivo [9]; 150 mg/kg): 6 h
- half-life (in vivo [9]; 150 mg/kg): 0.5 h
- MRT (in vivo [9]; 500 mg/kg): 9 h
- half-life (in vivo [9]; 500 mg/kg): 0.5 h
- Hill coefficient (EBOV/Mak [2]): 4.859
- IC50 (EBOV/Mak [2]): 5.86 µM
- tolerability [10]: well tolerated
- IC50 (EBOV [3]): ~4 µM
- inhibitory activity over time (stability in V8) (VSV-EBOV-GPΔ-Luc): maintained inhibitory activity over 15 days
- IC50 (EBOV [11]): 3.21 µM
- Survival (%) (EBOV [4]; ip, 12 mg/kg): 100% and 100 ^3%
- survival (EBOV [4]; ip, 12 mg/kg): 90-100%

SMILES: CCN(CC)CCOc1ccc(C(=C(Cl)c2ccccc2)c2ccccc2)cc1 [Clomiphene]
- Cmax ([1]; 50 mg): 50 nM
- protection (EBOV [4]; ip, 12 mg/kg): 60% and 40%
- protection (EBOV [4]; po, 21 mg/kg): no mice were protected

SMILES: CC(=O)c1ccc2c(c1)N(CCCN1CCC(CCO)CC1)c1ccccc1S2 [Piperacetazine]
- IC50 (EBOV/Mak [2]): 7.58 µM
- IC50 (EBOV [3]): 5.44 µM
- IC50 (EBOV [11]): 3.3 µM

SMILES: CN[C@H]1CC[C@@H](c2ccc(Cl)c(Cl)c2)c2ccccc21 [Sertraline]
- Cmax ([1]; 200 mg): 540 nM
- protection (EBOV/Mak-C05): not effective; also recorded: did not protect macaques
- Oral LD50 [5]: 336 mg/kg
- mi (hill coefficient of drug i applied in combination) (EBOV [6]): 2.736 and 1.996
- Cmax (in vivo [12]): 430 nM
- Cmax [8]: ~1200 nM
- Cmax obtained relative to prediction, fold higher [8]: ~ 1.2 fold
- MRT (in vivo [9]; 30 mg/kg): 11 h
- half-life (in vivo [9]; 30 mg/kg): 1 h
- MRT (in vivo [9]; 60 mg/kg): 5 h
- half-life (in vivo [9]; 60 mg/kg): 1 h
- predicted survival (EBOV [13]): ~ 35%
- Hill coefficient (EBOV/Mak [2]): 1.628
- tolerability [10]: well tolerated
- Survival (%) (EBOV [4]; ip, 10 mg/kg): 70%

SMILES: CN(C)CCOc1ccc(/C(=C(/CCCl)c2ccccc2)c2ccccc2)cc1 [Toremifene]
- Cmax ([1]; 60 mg): 1970 nM
- mi (hill coefficient of drug i applied in combination) (EBOV [6]): 1.628
- Cmax (in vivo [12]): 160 nM
- Cmax [8]: ~4400 nM
- Oral LD50 [14]: 3000 mg/kg
- Cmax (in vivo [9]; 100 mg/kg): 498 ng/mL
- MRT (in vivo [9]; 100 mg/kg): 6 h
- half-life (in vivo [9]; 100 mg/kg): 0.5 h
- Cmax (in vivo [9]; 200 mg/kg): 1300 ng/mL
- MRT (in vivo [9]; 200 mg/kg): 16 h
- half-life (in vivo [9]; 200 mg/kg): 0.2 h
- approximated protection of infected mice (EBOV [13]): ~ 50%
- estimated survival (EBOV [13]): ~ 50%
- predicted survival (EBOV [13]): ~ 7%
- Hill coefficient (EBOV/Mak [2]): 3.057
- IC50 (EBOV/Mak [2]): 3.64 µM
- tolerability [10]: well tolerated
- IC50 (EBOV [3]): 1.8 µM
- inhibitory activity over time (stability in V8) (VSV-EBOV-GPΔ-Luc): began to lose activity after ~1 week
- IC50 (EBOV [11]): 0.03 µM
- Survival (%) (EBOV [4]; ip, 60 mg/kg): 50%
